What was measured:
[1] = test system: VRE, designated HAM-1; conditions: commonly encountered VRE; cited from earlier work
[2] = test system: EMRSA 15 strains; conditions: local EMRSA 15 strains, typically; cited from earlier work
[3] = test system: S. aureus NCTC 6571; assay: Disc sensitivity testing (Stokes), reference strain; assay type: cell-based, Staphylococcus aureus; conditions: CLX
Description: All routine sensitivity testing was performed using a standard disc diffusion technique (Stokes) performed on Unipath (Oxoid) Diagnostic Sensitivity Test agar with 5% lysed horse blood.
Testing of Staphylococci--Staphylococcus aureus (Oxford strain) NCTC 6571
Inocula for test and control organisms were prepared from overnight 37° C. Unipath (Oxoid) Brain Heart Infusion broth cultures. Prom these well-mixed cultures, 2 drops ([…]) were transferred to 3 ml sterile water. This suspension was used to moisten sterile cotton tipped swabs which were then used with a rotary plater for inoculation of test plates.
The following disc sets were used for sensitivity testing:
Methicillin Sensitivity Testing
Methicillin (cloxacillin) sensitivity for Staphylococci was confirmed using a methicillin test strips (Methi-test, Medical Wire Limited--MW981) and a heavy inoculum. This was prepared by adding 5 colonies from an overnight nutrient agar plate culture 3 ml water.
For each organism, including sensitive and resistant controls, a loop was charged with the heavy inoculum suspension and streaked across a Unipath (Oxoid) Diagnostic Sensitivity Test plus 5% lysed horse blood agar plate in a single direction. A methicillin strip was then placed on the surface of the plate at right angles to the inocula. […]

[4] = test system: bacteria and fungi; assay: Antimicrobial activity (general statements); assay type: cell-based
[5] = cited from earlier work
[6] = test system: bacteria and fungi; conditions: known antimicrobial substances; cited from earlier work
[7] = test system: TNF production; assay: TNF production in human blood / antibiotic-treated cultures; assay type: cell-based
Text: Taurolidine and/or Taurultam prevent over-production of cytokines in the patient by monocytes of the blood.

[8] = test system: Staph. app.; assay: Resistance to Vancomycin (30 μg/Disc), Staph. app.; assay type: cell-based
Description: ^1 VE30: Resistance to Vancomycin (30 μg/Disc)

Molecule: CC1(C)S[C@@H]2[C@H](NC(=O)[C@H](N)c3ccccc3)C(=O)N2[C@H]1C(=O)O [Ampicillin]
- in vitro resistance of strain [1]: resistance in vitro

Molecule: O=C(O)c1cn(C2CC2)c2cc(N3CCNCC3)c(F)cc2c1=O [Ciprofloxacin]
- in vitro resistance of strain [2]: resistant in vitro

Molecule: CCC[C@@H]1C[C@@H](C(=O)N[C@@H]([C@H]2O[C@H](SC)[C@H](O)[C@@H](O)[C@H]2O)[C@H](C)Cl)N(C)C1 [Clindamycin, clindamycin]
- in vitro resistance of strain [2]: resistant in vitro

Molecule: Cc1onc(-c2ccccc2Cl)c1C(=O)N[C@@H]1C(=O)N2[C@@H]1SC(C)(C)[C@@H]2C(=O)O [Cloxacillin]
- disc sensitivity, methicillin (cloxacillin) [3]: S (Test zones <5 mm smaller than the control zone are SENSITIVE)
- in vitro resistance of strain [2]: resistant in vitro

Molecule: CC[C@H]1OC(=O)[C@H](C)[C@@H](O[C@H]2C[C@@](C)(OC)[C@@H](O)[C@H](C)O2)[C@H](C)[C@@H](O[C@@H]2O[C@H](C)C[C@H](N(C)C)[C@H]2O)[C@](C)(O)C[C@@H](C)C(=O)[C@H](C)[C@@H](O)[C@]1(C)O [Erythromycin]
- in vitro resistance of strain [1]: resistance in vitro
- in vitro resistance of strain [2]: resistant in vitro

Molecule: COc1cccc(OC)c1C(=O)N[C@@H]1C(=O)N2[C@@H]1SC(C)(C)[C@@H]2C(=O)O [Methicillin, methicillin]
- in vitro resistance of strain [2]: resistant in vitro

Molecule: C/C(=C\C(=O)OCCCCCCCCC(=O)O)C[C@@H]1OC[C@H](C[C@@H]2O[C@H]2[C@@H](C)[C@H](C)O)[C@@H](O)[C@H]1O [Mupirocin]
- in vitro resistance of strain [2]: resistant in vitro

Molecule: O=S1(=O)CCNCN1 [Taurultam]
- rate of bacterial killing [4]: kills bacteria slowly
- resistance development [4]: no resistance development by microbes has been observed
- half-life in vivo [5]: short half-life in vivo
- antimicrobial spectrum [6]: broad-spectrum activity against aerobic and anaerobic bacteria, mycobacteria and fungi
- TNF production ([7]; added to antibiotic-treated cultures): prevents a rise in TNF production
- neutralization of released endotoxins ([7]; antibiotic-treated cultures): nearly complete neutralization of released endotoxins

Molecule: CN[C@H](CC(C)C)C(=O)N[C@H]1C(=O)N[C@@H](CC(N)=O)C(=O)N[C@H]2C(=O)N[C@H]3C(=O)N[C@H](C(=O)N[C@H](C(=O)O)c4cc(O)cc(O)c4-c4cc3ccc4O)[C@H](O)c3ccc(c(Cl)c3)Oc3cc2cc(c3O[C@@H]2O[C@H](CO)[C@@H](O)[C@H](O)[C@H]2O[C@H]2C[C@](C)(N)[C@H](O)[C@H](C)O2)Oc2ccc(cc2Cl)[C@H]1O [Vancomycin]
- in vitro resistance of strain [1]: resistance in vitro
- VE30: Resistance to Vancomycin [8]: S

Molecule: Gentamicin
- in vitro resistance of strain [1]: high level gentamicin resistance

Molecule: Teicoplanin
- in vitro resistance of strain [1]: resistance in vitro
